Test results as given in patent US20170001988A1, “PIPERIDINE AND PIPERAZINE DERIVATIVES AND THEIR USE IN TREATING VIRAL INFECTIONS AND CANCER” (THE UNITED STATES OF AMERICA, AS REPRESENTED BY THE …, priority 2013, published 2017).
Like-named read-outs stand apart in the source and are kept apart here.

Tests used:
Huh7.5.1 cells = experiment: ATPLite cytotoxicity assay
Description: (§1) EC50 was generated using the HCV-Luc infection assay and IC50 using the ATPLite assay.
(§2) EC50 was generated using the HCV-Luc infection assay and TC50 using the ATPLite assay.
(§3) The cytotoxicity of the compounds was further evaluated in HepG2 cells and primary human hepatocytes.

HCV-Luc = HCV-Luc infection assay; format: cell-based; settings: for EC50: Hepatitis C virus
[1] = ATPLite cytotoxicity assay; settings: human
Description: as §1, §2, §3

Row | Compound | CC50 (Huh7.5.1 cells; human) [µM] | EC50 (HCV-Luc; Table 3, read-out: EC50) [µM] | Selective Index (HCV-Luc; Table 3) | also measured
1 | CN1CCCN(C(c2ccccc2)c2ccc(Cl)cc2)CC1 (stereo not shown) |  |  |  | CC50 (Huh7.5.1 cells; Table 5): 12.8 ± 0.1 µM; EC50 (HCV-Luc; Table 5, read-out: EC50): 0.057 ± 0.008 µM; Selective Index (HCV-Luc; Table 5): 225
2 | Clc1ccc(C(c2ccc(Cl)cc2)N2CCCCC2)cc1 | 69 ± 0.9 |  |  | EC50 (HCV-Luc; Table 5, read-out: EC50): 17.4 ± 2.8 µM; Selective Index (HCV-Luc; Table 5): 4
3 | Clc1ccc(C(c2ccc(Cl)cc2)N2CCOCC2)cc1 | 62.1 ± 2.8 |  |  | EC50 (HCV-Luc; Table 5, read-out: EC50): 29.7 ± 0.1 µM; Selective Index (HCV-Luc; Table 5): 2
4 | CN1CCC(N(c2ccccc2)c2ccccc2)CC1 | 56.8 ± 8.2 |  |  | EC50 (HCV-Luc; Table 5, read-out: EC50): 2.72 ± 1.13 µM; Selective Index (HCV-Luc; Table 5): 21
5 | CN1CCC(N(c2ccccc2)c2ccc(OC(C)(C)C)cc2)CC1 | 78.7 ± 0.6 |  |  | EC50 (HCV-Luc; Table 5, read-out: EC50): 0.354 ± 0.097 µM; Selective Index (HCV-Luc; Table 5): 222
6 | c1ccc(C(c2ccccc2)C2CCNCC2)cc1 |  |  |  | CC50 (Huh7.5.1 cells; Table 5): 32.5 ± 0.1 µM; EC50 (HCV-Luc; Table 5, read-out: EC50): 0.072 ± 0.002 µM; Selective Index (HCV-Luc; Table 5): 451
7 | c1ccc(C(c2ccccc2)c2ccncc2)cc1 | 65.1 ± 2.1 |  |  | EC50 (HCV-Luc; Table 5, read-out: EC50): > 31.5 µM; Selective Index (HCV-Luc; Table 5): <2
8 | CCN1CCN(C2c3ccccc3-c3ccc(Br)cc32)CC1 (stereo not shown) | 53.1 ± 1.3 |  |  | EC50 (HCV-Luc; Table 5, read-out: EC50): 1.68 ± 0.45 µM; Selective Index (HCV-Luc; Table 5): 32
9 | CC(C)(C)OC(=O)NCCOCCOCCOCCOCCN1CCN(C(c2ccccc2)c2ccc(Cl)cc2)CC1 (racemic) [(CH2CH2O)4(CH2)2NHC(═O)Ot-Bu (R,S), tert-Butyl (14-(4-((4-chlorophenyl)(phenyl)methyl)piperazin-1-yl)-3,6,9,12-tetraoxatetradecyl)carbamate] | 19 ± 4 | 0.199 ± 0.03 | 95 | 
10 | CC(=O)NCCOCCOCCOCCOCCN1CCN(C(c2ccccc2)c2ccc(Cl)cc2)CC1 (racemic) [(CH2CH2O)4CH2CH2NHC(═O)Me (R,S), N-(14-(4-((4-Chlorophenyl)(phenyl)methyl)piperazin-1-yl)-3,6,9,12-tetraoxatetradecyl)acetamide] | > 100 | 0.17 ± 0.022 | >588 | 
11 | NCCOCCN1CCN(C(c2ccccc2)c2ccc(Cl)cc2)CC1 (racemic) [CH2CH2OCH2CH2NH2 (R,S), 2-(2-(4-((4-Chlorophenyl)(phenyl)methyl)piperazin-1-yl)ethoxy)ethanamine] | 8.18 | 0.0048 ± 0.0011 | 1704 | 
12 | OCCOCCN1CCN(C(c2ccccc2)c2ccc(Cl)cc2)CC1 (racemic) [CH2CH2OCH2CH2OH (R,S), 2-(2-(4-((4-Chlorophenyl)(phenyl)methyl)piperazin-1-yl)ethoxy)ethanol] |  | 0.032 ± 0.011 |  | CC50 ([1]; Huh7.5.1 cells): 42.6 ± 1.8 µM; Selective Index (HCV-Luc): 1331
13 | NC(=O)COCCN1CCN(C(c2ccccc2)c2ccc(Cl)cc2)CC1 (racemic) [CH2CH2OCH2CONH2 (R,S), 2-(2-(4-((4-Chlorophenyl)(phenyl)methyl)piperazin-1-yl)ethoxy)acetamide] | > 100 | 0.103 ± 0.052 | >910 | 
14 | O=C(O)COCCN1CCN(C(c2ccccc2)c2ccc(Cl)cc2)CC1 (racemic) [CH2CH2OCH2COOH (R,S), 2-(2-(4-((4-Chlorophenyl)(phenyl)methyl)piperazin-1-yl)ethoxy) acetic acid] |  | > 31.6 |  | 
15 | COc1ccc(CN2CCN([C@@H](c3ccccc3)c3ccc(Cl)cc3)CC2)c(OC)c1 [2-4-dimethoxybenzyl (S), (S)-1-((4-Chlorophenyl)(phenyl)methyl)-4-(2,4-dimethoxybenzyl)piperazine] | 38.4 ± 4.2 | 0.456 ± 0.235 | 84 | 
16 | O=C1c2ccccc2C(=O)N1CCOCCN1CCN(C(c2ccccc2)c2ccc(Cl)cc2)CC1 (stereo not shown) [2-(2-(2-(4-((4-Chlorophenyl)(phenyl)methyl)piperazin-1-yl)ethoxy)ethyl)isoindoline-1,3-dione] | > 100 | 1.54 ± 0.57 | >65 | 
17 | COc1ccccc1CN1CCC(N(CCc2ccccc2)Cc2ccccc2)CC1 [2-Methoxybenzyl, N-Benzyl-1-(2-methoxybenzyl)-N-phenethylpiperidin-4-amine] |  |  |  | CC50 [1]: 15.2 µM; EC50 (HCV-Luc): 0.64 µM
18 | c1ccc(CCN2CCC(N(CCc3ccccc3)Cc3ccccc3)CC2)cc1 [2-Phenylethyl, N-Benzyl-N,1-diphenethylpiperidin-4-amine] |  |  |  | CC50 [1]: > 100 µM; EC50 (HCV-Luc; Table 6, read-out: EC50): 16.2 µM
19 | CC(C)CN1CCN([C@H](c2ccccc2)c2ccc(Cl)cc2)CC1 [2-methyl-1-propyl (R), (R)-1-((4-Chlorophenyl)(phenyl)methyl)-4-isobutylpiperazine] | 58.2 ± 7.2 | 0.232 ± 0.061 | 251 | 
20 | CC(C)CN1CCN([C@@H](c2ccccc2)c2ccc(Cl)cc2)CC1 [2-methyl-1-propyl (S), (S)-1-((4-Chlorophenyl)(phenyl)methyl)-4-isobutylpiperazine] | 51.7 ± 1.4 | 0.102 ± 0.018 | 507 | 
21 | COc1cccc(CN2CCC(N(CCc3ccccc3)Cc3ccccc3)CC2)c1 [3-Methoxybenzyl, N-Benzyl-1-(3-methoxybenzyl)-N-phenethylpiperidin-4-amine] |  |  |  | CC50 [1]: 45.2 µM; EC50 (HCV-Luc; Table 6, read-out: EC50): 1.57 µM

Row | Compound | CC50 (Huh7.5.1 cells; human) [µM] | EC50 (HCV-Luc; Table 3, read-out: EC50) [µM] | Selective Index (HCV-Luc; Table 3) | also measured
22 | Brc1ccc(CN2CCC(N(CCc3ccccc3)Cc3ccccc3)CC2)cc1 [4-Bromobenzyl, N-Benzyl-1-(4-bromobenzyl)-N-phenethylpiperidin-4-amine] |  |  |  | CC50 [1]: > 100 µM; EC50 (HCV-Luc; Table 6, read-out: EC50): 4.33 µM
23 | Clc1ccc(CN2CCC(N(CCc3ccccc3)Cc3ccccc3)CC2)cc1 [4-Chlorobenzyl, N-Benzyl-1-(4-chlorobenzyl)-N-phenethylpiperidin-4-amine] |  |  |  | CC50 [1]: > 100 µM; EC50 (HCV-Luc; Table 6, read-out: EC50): 9.24 µM
24 | N#Cc1ccc(CN2CCC(N(CCc3ccccc3)Cc3ccccc3)CC2)cc1 [4-Cyanobenzyl, 4-((4-(Benzyl(phenethyl)amino)piperidin-1-yl)methyl)benzonitrile] |  |  |  | CC50 [1]: 100 µM; EC50 (HCV-Luc; Table 6, read-out: EC50): 5.86 µM
25 | CC(=O)N1CCN([C@@H](c2ccccc2)c2ccc(Cl)cc2)CC1 [Acetyl (S), (S)-1-(4-((4-Chlorophenyl)(phenyl)methyl)piperazin-1-yl)ethanone] | 91.3 ± 1 | 22 ± 3.2 | 4 | 
26 | [2H]C([2H])([2H])N1CCN([C@H](c2ccccc2)c2ccc(Cl)cc2)CC1 [CD3 (R), (R)-1-((4-Chlorophenyl)(phenyl)methyl)-4-methyl(d3)piperazine] | 46.7 ± 0.4 | 0.04 ± 0.017 |  | 
27 | [2H]C([2H])([2H])N1CCN([C@@H](c2ccccc2)c2ccc(Cl)cc2)CC1 [CD3 (S), (S)-1-((4-Chlorophenyl)(phenyl)methyl)-4-methyl(d3)piperazine] | 77.9 ± 3.1 | 0.063 ± 0.025 |  | 
28 | [2H]C([2H])([2H])CN1CCN([C@H](c2ccccc2)c2ccc(Cl)cc2)CC1 [CD3CH2 (R), (R)-1-((4-Chlorophenyl)(phenyl)methyl)-4-ethyl(2,2,2-d3)piperazine] | 81.5 ± 0.5 |  |  | 
29 | [2H]C([2H])([2H])CN1CCN([C@@H](c2ccccc2)c2ccc(Cl)cc2)CC1 [CD3CH2 (S), (S)-1-((4-Chlorophenyl)(phenyl)methyl)-4-ethyl(2,2,2-d3)piperazine] | 71.3 ± 11.4 |  |  | 
30 | FC(F)(F)CN1CCN([C@H](c2ccccc2)c2ccc(Cl)cc2)CC1 [CF3CH2 (R), (R)-1-((4-Chlorophenyl)(phenyl)methyl)-4-(2,2,2-trifluoroethyl)piperazine] | > 100 | > 31.6 |  | 
31 | FC(F)(F)CN1CCN([C@@H](c2ccccc2)c2ccc(Cl)cc2)CC1 [CF3CH2 (S), (S)-1-((4-Chlorophenyl)(phenyl)methyl)-4-(2,2,2-trifluoroethyl)piperazine] | > 100 | > 31.6 |  | 
32 | OCCOCCN1CCN(C(c2ccc(Cl)cc2)c2ccc(Cl)cc2)CC1 [Cl, Cl, CH2CH2OCH2CH2OH, 2-(2-(4-(bis(4-Chlorophenyl)methyl)piperazin-1-yl)ethoxy)ethanol] |  |  |  | EC50 (HCV-Luc): 0.0055 ± 0.0022 µM
33 | Clc1ccc([C@H](c2ccccc2)N2CCN(C3CCCCC3)CC2)cc1 [Cyclohexyl (S), (S)-1-((4-Chlorophenyl)(phenyl)methyl)-4-cyclohexylpiperazine] | 12.3 ± 0.3 | 0.177 ± 0.037 | 69 | 
34 | Clc1ccc([C@H](c2ccccc2)N2CCN(C3CCCC3)CC2)cc1 [Cyclopentyl (S), (S)-1-((4-Chlorophenyl)(phenyl)methyl)-4-cyclopentylpiperazine] | 30.4 ± 2.8 | 0.019 ± 0.006 | 1600 | 
35 | CCN1CCN([C@H](c2ccccc2)c2ccc(Cl)cc2)CC1 [Et (R), (R)-1-((4-Chlorophenyl)(phenyl)methyl)-4-ethylpiperazine] | 37.9 ± 3.3 |  |  | 
36 | Clc1ccc([C@@H](c2ccccc2)N2CCNCC2)cc1 [H (R), (R)-1-((4-Chlorophenyl)(phenyl)methyl)piperazine] | 12.5 ± 1.4 | 0.032 ± 0.022 | 391 | 
37 | Clc1ccc([C@H](c2ccccc2)N2CCNCC2)cc1 [H (S), (S)-1-((4-Chlorophenyl)(phenyl)methyl)piperazine] | 9.31 ± 0.04 | 0.034 ± 0.012 | 0274 | 
38 | CC(C)N1CCN([C@@H](c2ccccc2)c2ccc(Cl)cc2)CC1 [i-Pr (S), (S)-1-((4-Chlorophenyl)(phenyl)methyl)-4-isopropylpiperazine] | 32.4 ± 3.8 | 0.013 ± 0.004 | 2492 | 
39 | CCCCN1CCN([C@H](c2ccccc2)c2ccc(Cl)cc2)CC1 [n-Bu (R), (R)-1-Butyl-4-((4-chlorophenyl)(phenyl)methyl)piperazine] | 40.8 ± 0.4 | 0.195 ± 0.084 | 309 | 
40 | CCCCN1CCN([C@@H](c2ccccc2)c2ccc(Cl)cc2)CC1 [n-Bu (S), (S)-1-Butyl-4-((4-chlorophenyl)(phenyl)methyl)piperazine] | 31.1 ± 4.2 | 0.042 ± 0.023 | 740 | 
41 | CCCN1CCN([C@H](c2ccccc2)c2ccc(Cl)cc2)CC1 [n-Pr (R), (R)-1-((4-Chlorophenyl)(phenyl)methyl)-4-propylpiperazine] | 48.5 ± 1.1 | 0.024 ± 0.005 | 2021 | 
42 | CCCN1CCN([C@@H](c2ccccc2)c2ccc(Cl)cc2)CC1 [n-Pr (S), (S)-1-((4-Chlorophenyl)(phenyl)methyl)-4-propylpiperazine] | 39.7 ± 0.9 | 0.032 ± 0.018 | 1241 | 
